Key:
[1] = test system: p53-responsive reporter pRGCΔfoslacZ in human melanoma cell line Arn8; test: p53-dependent transcriptional activity, β-galactosidase reporter in Arn8 cells; details: concentration inducing maximum of β-galactosidase activity (p53-responsive reporter)
[2] = test system: cervical carcinoma cells HELA; test: In vitro cytotoxic activity (Calcein AM, 72 hours), HELA; details: Homo sapiens, read-out: Cytotoxicity IC50 HeLa
[3] = In vitro cytotoxic activity (Calcein AM, 72 hours), BJ; details: human, BJ normal fibroblasts
[4] = test system: human malignant melanoma G 361; test: In vitro cytotoxic activity (Calcein AM, 72 hours), G 361; details: G-361, 72 h, read-out: Cytotoxicity IC50 G361
[5] = test system: promyelocytic leukemia HL 60; test: In vitro cytotoxic activity (Calcein AM, 72 hours), HL 60; details: Homo sapiens, HL-60, 72 h, read-out: Cytotoxicity IC50 HL60
breast carcinoma MCF7 = test: In vitro cytotoxic activity (Calcein AM, 72 hours), MCF7; details: Homo sapiens, MCF7, 72 h, read-out: Cytotoxicity IC50 MCF7
CDK2/cyclin E = CDK2/cyclin E (Homo sapiens, UniProt P24941); test: CDK inhibition assay, CDK2/cyclin E
CDK9/cyclin T = CDK9/cyclin T (Homo sapiens, UniProt P50750); test: CDK inhibition assay, CDK9/cyclin T
CDK1/cyclin B = CDK1/cyclin B (Homo sapiens, UniProt P06493); test: CDK inhibition assay, CDK1/cyclin B
[6] = test system: human erythroleukaemia K562; test: In vitro cytotoxic activity (Calcein AM, 72 hours), K562; details: K562, 72 h, read-out: Cytotoxicity IC50 K-562
[7] = test system: human osteogenic sarcoma HOS; test: In vitro cytotoxic activity (Calcein AM, 72 hours), HOS; details: read-out: Cytotoxicity IC50 HOS
[8] = test system: human T-lymphoblastoid leukaemic cell line CEM; test: In vitro cytotoxic activity (Calcein AM, 72 hours), CEM; details: read-out: Cytotoxicity IC50 CEM

Chain of CDK9/cyclin T (P50750 whole entry, species assumed): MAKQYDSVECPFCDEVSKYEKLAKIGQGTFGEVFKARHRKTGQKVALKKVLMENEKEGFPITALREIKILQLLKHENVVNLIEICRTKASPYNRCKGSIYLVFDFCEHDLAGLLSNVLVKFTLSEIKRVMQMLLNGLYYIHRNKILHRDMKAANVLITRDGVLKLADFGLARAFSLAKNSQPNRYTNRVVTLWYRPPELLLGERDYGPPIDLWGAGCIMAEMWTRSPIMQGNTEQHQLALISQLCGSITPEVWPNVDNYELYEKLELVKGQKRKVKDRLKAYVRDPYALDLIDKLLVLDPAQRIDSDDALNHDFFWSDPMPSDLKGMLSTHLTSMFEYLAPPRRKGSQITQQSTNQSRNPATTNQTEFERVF
Chain of CDK9/cyclin T (O60563 whole entry partner, species assumed): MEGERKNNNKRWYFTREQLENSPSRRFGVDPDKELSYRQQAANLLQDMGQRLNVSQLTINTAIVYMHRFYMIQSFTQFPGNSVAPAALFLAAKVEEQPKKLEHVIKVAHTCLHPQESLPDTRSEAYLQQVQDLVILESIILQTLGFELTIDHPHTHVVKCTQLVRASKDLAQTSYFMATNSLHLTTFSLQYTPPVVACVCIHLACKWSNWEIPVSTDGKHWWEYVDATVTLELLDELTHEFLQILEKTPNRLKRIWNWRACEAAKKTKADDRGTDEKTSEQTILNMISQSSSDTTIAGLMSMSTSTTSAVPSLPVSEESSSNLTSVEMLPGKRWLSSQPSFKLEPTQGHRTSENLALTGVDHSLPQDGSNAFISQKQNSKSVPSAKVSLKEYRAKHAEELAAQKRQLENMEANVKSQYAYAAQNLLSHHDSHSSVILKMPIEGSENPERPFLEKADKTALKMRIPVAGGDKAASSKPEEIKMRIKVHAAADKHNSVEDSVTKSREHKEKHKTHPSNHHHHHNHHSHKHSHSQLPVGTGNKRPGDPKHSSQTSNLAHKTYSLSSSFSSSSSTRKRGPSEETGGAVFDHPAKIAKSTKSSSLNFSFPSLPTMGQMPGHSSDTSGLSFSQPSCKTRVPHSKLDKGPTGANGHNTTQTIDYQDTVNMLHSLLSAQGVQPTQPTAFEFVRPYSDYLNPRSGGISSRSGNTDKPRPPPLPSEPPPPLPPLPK
Chain of CDK1/cyclin B (P06493 whole entry, species assumed): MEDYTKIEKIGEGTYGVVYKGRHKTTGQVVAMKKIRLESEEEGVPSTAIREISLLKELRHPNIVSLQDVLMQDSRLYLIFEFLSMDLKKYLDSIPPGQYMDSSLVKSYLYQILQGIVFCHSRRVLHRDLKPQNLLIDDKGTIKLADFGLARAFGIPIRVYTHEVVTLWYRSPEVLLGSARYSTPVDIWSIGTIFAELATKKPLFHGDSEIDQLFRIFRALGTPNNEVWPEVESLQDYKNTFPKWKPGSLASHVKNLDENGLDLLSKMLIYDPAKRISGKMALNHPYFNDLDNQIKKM
Chain of CDK1/cyclin B (P14635 whole entry partner, species assumed): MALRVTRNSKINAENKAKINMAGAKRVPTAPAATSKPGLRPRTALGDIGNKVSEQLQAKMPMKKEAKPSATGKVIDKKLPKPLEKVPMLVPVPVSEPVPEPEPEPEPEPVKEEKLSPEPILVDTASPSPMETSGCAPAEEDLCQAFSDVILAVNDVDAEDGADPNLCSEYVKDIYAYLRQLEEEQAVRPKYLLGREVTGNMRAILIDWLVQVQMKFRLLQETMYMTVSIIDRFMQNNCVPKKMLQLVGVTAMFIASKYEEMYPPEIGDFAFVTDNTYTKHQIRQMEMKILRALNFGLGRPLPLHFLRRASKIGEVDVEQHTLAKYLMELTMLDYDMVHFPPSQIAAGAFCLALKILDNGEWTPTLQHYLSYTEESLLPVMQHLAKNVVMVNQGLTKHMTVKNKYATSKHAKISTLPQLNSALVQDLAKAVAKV

Row | SMILES | Max. β-Gal. Activtity Conc. [1] | IC50 [2] | IC50 at 72 h [3] | IC50 [4] | IC50 [5] | IC50 (breast carcinoma MCF7) | IC50 (CDK2/cyclin E) | IC50 (CDK9/cyclin T) | IC50 (CDK1/cyclin B) | IC50 [6] | IC50 [7] | IC50 [8]
1 | CC(O)CNc1nc(NCc2ccccc2N)c2ncn(C(C)C)c2n1 (stereo not drawn) [Compound 104, 1-({6-[(2-aminobenzyl)amino]-9-isopropyl-9H-purin-2-yl}amino)propan-2-ol] | 12 µM | 15 µM | > 167 µM | 19 µM | 29 µM | 15.4 µM | 0.03 µM | 0.006 µM | 0.09 µM | 26 µM | 31 µM | 17 µM
2 | Cn1cnc2c(NCc3ccccc3N)nc(NC3CCCCC3N)nc21 (stereo not drawn) [Compound 1] | 34 µM | 18 µM | > 167 µM | 22 µM | 31 µM | 13 µM | 0.8 µM | 0.05 µM | 1.1 µM | 46 µM | 22 µM | 15 µM
3 | CC(C)C(CO)Nc1nc(NCc2ccccc2N)c2ncn(C)c2n1 (stereo not drawn) [Compound 7] | 25 µM | 1 µM | > 167 µM | 1.2 µM | 2.4 µM | 1.5 µM | 0.01 µM | 0.001 µM | 0.04 µM | 5 µM | 0.8 µM | 0.9 µM
4 | CC(C)n1cnc2c(NCc3ccccc3)nc(NCC(C)(C)O)nc21 [Compound A2148] | – | – | – | 66 µM | – | 65 µM | 0.4 µM | 0.5 µM | 0.6 µM | 47 µM | – | 51 µM
5 | CCC(CO)Nc1nc(NCc2cc(Cl)ccc2N)c2ncn(C3CCCCC3)c2n1 (stereo not drawn) [Compound 209] | 20 µM | 14 µM | > 167 µM | 14 µM | 31 µM | 11 µM | 0.3 µM | 0.04 µM | 0.5 µM | 25 µM | 18 µM | 12 µM
6 | CCn1cnc2c(NCc3ccccc3N)nc(NC(CO)C(C)C)nc21 (stereo not drawn) [Compound 64] | 6 µM | 1.2 µM | > 167 µM | 1 µM | 2.1 µM | 1.3 µM | 0.01 µM | 0.0009 µM | 0.03 µM | 4.5 µM | 0.9 µM | 0.7 µM
7 | Nc1ccccc1CNc1nc(NC2CCC(N)CC2)nc2c1ncn2Cc1ccccc1 (stereo not drawn) [Compound 231] | 18 µM | 16 µM | > 167 µM | 15 µM | 32 µM | 15 µM | 0.5 µM | 0.05 µM | 0.8 µM | 37 µM | 23 µM | 12 µM
8 | Cc1cccc(CNc2nc(NC3CCC(N)CC3)nc3c2ncn3C(C)C)c1N (stereo not drawn) [Compound 138] | 2 µM | 9.2 µM | > 167 µM | 13 µM | 23 µM | 3.8 µM | 0.07 µM | 0.0006 µM | 0.1 µM | 9.5 µM | 25 µM | 8.7 µM
9 | CCC(CO)Nc1nc(NCc2ccccc2N)c2ncn(Cc3ccccc3)c2n1 (stereo not drawn) [Compound 234] | 24 µM | 18 µM | > 167 µM | 18 µM | 33 µM | 11 µM | 0.4 µM | 0.03 µM | 0.7 µM | 25 µM | 17 µM | 16 µM
10 | CC(C)n1cnc2c(NCc3ccccc3N)nc(NC(C)C(C)(C)O)nc21 (stereo not drawn) [Compound 109] | 6 µM | – | – | – | – | – | – | – | – | – | – | –
11 | CC(C)n1cnc2c(NCc3cc(F)ccc3N)nc(NC3CCCCC3N)nc21 (stereo not drawn) [Compound 125] | – | – | – | – | – | 6 µM | 0.1 µM | 0.008 µM | 0.4 µM | 10 µM | – | 5 µM
12 | CCC(Nc1nc(NCc2ccccc2N)c2ncn(C)c2n1)C(C)(C)O (stereo not drawn) [Compound 13] | 36 µM | – | – | – | – | – | – | – | – | – | – | –
13 | CCC(Nc1nc(NCc2ccccc2N)c2ncn(C(C)C)c2n1)C(C)(C)O (stereo not drawn) [Compound 113] | 16 µM | – | – | – | – | – | – | – | – | – | – | –
14 | CC[C@H](CO)Nc1nc(NCc2ccccc2)c2ncn(C(C)C)c2n1 [RO] | 50 µM | 22 µM | > 167 µM | 22 µM | 35 µM | 14 µM | – | – | – | 52 µM | 24 µM | 14 µM
15 | CC(C)n1cnc2c(NCc3ccccc3N)nc(NCC(C)(C)O)nc21 [Compound 108] | 3 µM | 1 µM | > 167 µM | 1.9 µM | 2.2 µM | 1.2 µM | 0.008 µM | 0.0004 µM | 0.02 µM | 3 µM | 1 µM | 0.5 µM
16 | CCCCCCCNc1nc(NCc2ccccc2)c2ncn(C(C)C)c2n1 [Compound A218] | – | 65 µM | > 167 µM | 83 µM | 91 µM | 42.5 µM | 165 µM | 152 µM | 160 µM | 30.3 µM | 105 µM | 37 µM
17 | CC(CC(C)(C)O)Nc1nc(NCc2ccccc2N)c2ncn(C(C)C)c2n1 (stereo not drawn) [Compound 111] | 32 µM | – | – | – | – | – | – | – | – | – | – | –
18 | CC(C)n1cnc2c(NCc3ccccc3N)nc(NCC(C)C(C)(C)O)nc21 (stereo not drawn) [Compound 112] | 35 µM | – | – | – | – | – | – | – | – | – | – | –
19 | Cn1cnc2c(NCc3ccccc3N)nc(NC3CCC(N)CC3)nc21 (stereo not drawn) [Compound 2] | 37 µM | 12 µM | > 167 µM | 14 µM | 22 µM | 10 µM | 0.4 µM | 0.01 µM | 0.7 µM | 36 µM | 20 µM | 9 µM
20 | Cn1cnc2c(NCc3ccccc3)nc(NC3CCCCC3N)nc21 (stereo not drawn) [Compound A1140] | – | 50 µM | > 167 µM | 83 µM | 69 µM | 52 µM | 2.7 µM | 2.5 µM | 2.3 µM | 86 µM | 97 µM | 31 µM
21 | CCCCCCCNc1nc(NCc2ccccc2N)c2ncn(C(C)C)c2n1 [Compound 106, N-6-(2-aminobenzyl)-N-2-heptyl-9-isopropyl-9H-purin-2,6-diamine] | 41 µM | – | – | – | – | – | – | – | – | – | – | –
22 | CC(Nc1nc(NCc2ccccc2N)c2ncn(C)c2n1)C(C)(C)O (stereo not drawn) [Compound 9] | 25 µM | – | – | – | – | – | – | – | – | – | – | –
23 | CC(C)C(CO)Nc1nc(NCc2ccccc2N)c2ncn(C(C)C)c2n1 (stereo not drawn) [Compound 107] | 11 µM | – | – | – | – | – | 0.04 µM | 0.002 µM | 0.05 µM | – | – | –
24 | CC(C)n1cnc2c(NCc3ccccc3)nc(NC3CCC(N)CC3)nc21 (stereo not drawn) [Compound A2141] | – | 28 µM | > 167 µM | 27 µM | 47 µM | 33 µM | 0.5 µM | 0.7 µM | 0.4 µM | 47 µM | 28 µM | 33 µM
